Reference: patent publication US11998566B1, “Method of synthesizing a silver nanoparticle composition using an extract of Salsola tetrandra” (KING FAISAL UNIVERSITY, priority 2023, dated 2024)

How the values were obtained:
[1] = test system: A. fumigatus; assay: time kill assay; assay type: cell-based, Aspergillus fumigatus; details: 50 μg/mL; exposure for 24 hours; FIG. 1
Procedure: FIG. 1 is a graph showing time-kill curves of A. fumigatus following exposure to ST-AgNPs and amphotericin B for 24 hours (values are expressed as means±SD)
(§1) Several preliminary in vitro experiments were performed to confirm the potent antifungal potential of the green biosynthesized silver nanoparticles (ST-AgNPs) against A. fumigatus. […] Additionally, the inhibitory effect of the antifungals AMB and ST-AgNPs was also examined using light microscopy (FIGS. 2A-2C).

[2] = test system: A. fumigatus; assay: light microscopy of mycelial growth / germination; assay type: cell-based, Aspergillus fumigatus; details: FIG. 2C
Procedure: FIGS. 2A-2C show differences in the mycelial growth of A. fumigatus in 2A) control 2B) following exposure to ST-AgNPs and 2C) following exposure to amphotericin B. (conventional antifungal agent).
as §1

## C[C@@H]1[C@H](O)[C@@H](C)/C=C/C=C/C=C/C=C/C=C/C=C/C=C/[C@H](O[C@@H]2O[C@H](C)[C@@H](O)[C@H](N)[C@@H]2O)C[C@@H]2O[C@](O)(C[C@@H](O)C[C@@H](O)[C@H](O)CC[C@@H](O)C[C@@H](O)CC(=O)O[C@H]1C)C[C@H](O)[C@H]2C(=O)O [amphotericin B]
[1]
  action on the growth of Aspergillus cells (time kill assay): fungistatic action
[2]
  mycelial growth: substantially reduced
